Data from patent publication US20220356174A1, “PYRIDIN-2-ONE COMPOUNDS USEFUL AS SMARCA2 ANTAGONISTS” (Epizyme, Inc., priority 2018, published 2022).

Columns and labels:
A549 cells = test: Long term proliferation (LTP) assay, day 15 IC50 in A549 cells; type: cell-based; details: Homo sapiens, 360 h
FL-SMARCA4 = FL-SMARCA4 (Homo sapiens, UniProt P51532); test: SMARCA4 ATPase activity assay (ADP-Glo, chicken mononucleosome substrate); details: ATPase assay, enzyme 5 nM, ATP 250 uM, chicken mononucleosome 10 nM, 30 min preincubation
Sequence of FL-SMARCA4 (P51532 whole entry): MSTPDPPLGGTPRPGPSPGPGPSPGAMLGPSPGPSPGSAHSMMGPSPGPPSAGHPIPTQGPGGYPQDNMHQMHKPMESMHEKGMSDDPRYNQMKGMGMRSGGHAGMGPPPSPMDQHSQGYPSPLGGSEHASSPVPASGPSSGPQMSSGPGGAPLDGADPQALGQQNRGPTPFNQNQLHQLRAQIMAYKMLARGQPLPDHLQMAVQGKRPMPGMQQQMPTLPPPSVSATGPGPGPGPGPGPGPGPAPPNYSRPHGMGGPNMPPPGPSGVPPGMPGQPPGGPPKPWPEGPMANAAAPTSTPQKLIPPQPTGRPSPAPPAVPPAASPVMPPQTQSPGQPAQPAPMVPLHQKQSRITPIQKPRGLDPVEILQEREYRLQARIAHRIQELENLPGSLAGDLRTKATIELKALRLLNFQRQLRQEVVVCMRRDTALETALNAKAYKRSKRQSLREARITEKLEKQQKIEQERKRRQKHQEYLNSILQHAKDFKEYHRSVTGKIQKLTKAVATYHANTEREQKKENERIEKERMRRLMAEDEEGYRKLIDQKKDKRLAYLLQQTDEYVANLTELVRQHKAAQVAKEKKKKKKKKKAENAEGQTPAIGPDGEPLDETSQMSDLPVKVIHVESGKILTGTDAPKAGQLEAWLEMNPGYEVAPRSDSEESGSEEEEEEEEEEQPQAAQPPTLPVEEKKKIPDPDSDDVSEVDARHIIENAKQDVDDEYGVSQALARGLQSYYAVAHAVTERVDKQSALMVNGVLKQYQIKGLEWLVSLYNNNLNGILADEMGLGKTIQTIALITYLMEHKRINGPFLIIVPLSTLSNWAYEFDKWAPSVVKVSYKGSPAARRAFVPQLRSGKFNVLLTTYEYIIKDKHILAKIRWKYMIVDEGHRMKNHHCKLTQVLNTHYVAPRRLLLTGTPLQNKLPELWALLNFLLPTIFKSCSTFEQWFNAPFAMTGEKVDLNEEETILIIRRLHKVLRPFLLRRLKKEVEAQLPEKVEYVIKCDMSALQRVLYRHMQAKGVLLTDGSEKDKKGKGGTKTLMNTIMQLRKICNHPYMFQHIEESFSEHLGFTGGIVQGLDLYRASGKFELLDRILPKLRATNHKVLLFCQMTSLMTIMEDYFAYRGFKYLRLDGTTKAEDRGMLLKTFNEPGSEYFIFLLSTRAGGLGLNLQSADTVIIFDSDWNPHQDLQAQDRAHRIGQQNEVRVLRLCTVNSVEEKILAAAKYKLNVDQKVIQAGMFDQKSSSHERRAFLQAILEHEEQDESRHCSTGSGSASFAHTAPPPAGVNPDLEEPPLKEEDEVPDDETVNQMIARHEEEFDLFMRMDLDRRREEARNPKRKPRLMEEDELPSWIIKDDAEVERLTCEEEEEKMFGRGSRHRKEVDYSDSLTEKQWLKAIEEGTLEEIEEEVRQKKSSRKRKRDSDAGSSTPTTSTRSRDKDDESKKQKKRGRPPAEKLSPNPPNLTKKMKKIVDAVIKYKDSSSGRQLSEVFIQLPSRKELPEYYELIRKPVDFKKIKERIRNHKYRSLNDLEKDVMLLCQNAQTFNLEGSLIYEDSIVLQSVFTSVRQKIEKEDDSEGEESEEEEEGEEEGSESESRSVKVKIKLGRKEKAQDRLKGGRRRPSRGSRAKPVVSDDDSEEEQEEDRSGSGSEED

[1] = system: various lung cancer cell lines; test: Long term proliferation (LTP) assay in various cancer cell lines; type: cell-based
Protocol: The following cell lines were evaluated in an adherent cell line proliferation assay described herein: A549, HCC15, COV434, NCIH460, NCIH358, NCIH358-SMARCA2, NCIH358-SMARCA, NCIH1703, NCIH838, NCIH322, NCIH2122, NCIH2023, NCIH1355, NCIH1693, NCIH441, NCIH2030, NCIH1573, NCIH1373, NCIH1650, and NCIH1693. Plating densities for each cell line were determined based on growth curves (measured by ATP viability) and density over a 7 day timecourse. On the day before compound treatment, cells were plated in either 96-well plates in triplicate (for the day 0-7 timecourse) or 6-well plates (for replating on day 7 for the remainder of the timecourse). On Day 0, cells were either untreated, DMSO-treated, or treated with increasing concentrations of Compound 139 up to 10 μM. Plates were read on Day 0, Day 4, and Day 7 using a luminescent cell viability assay, with compound/media being replenished on Day 4. On Day 7, the 6-well plates were trypsinized, centrifuged, and resuspended in fresh media for counting by Vi-Cell. Cells from each treatment were replated at the original density in 96-well plates in triplicate. Cells were allowed to adhere to the plate overnight, and cells were treated as on Day 0. On Day 7, 11 and 14, plates were read using a luminescent cell viability assay, with compound/media being replenished on Day 11. Averages of triplicates were used to plot proliferation over the timecourse, and calculate IC50 values.
The following cell lines were evaluated in an adherent cell line proliferation assay described herein: NCIH522, CORL23, NCIH1693, NCIH1838, HCC1588, NCIH1435, NCIH2085, HCC827, NCIH1792, NCIH596, NCIH1568, NCIH1793, NCIH2126, CORL105, NCIH1573, NCIH1693, NCIH1395, HCC44, NCIH2126, NCIH520, NCIH1373, NCIH2172, NCIH23, HCT116, […], NCIH2347, NCIH2110, NCIH647, NCIH1437, AGS, KMS11, BT549, HUPT4, NCIH1048, TE10, and TE14. Cell densities were determined by growth curve as per protocol 1. For the proliferation assay, on Day 0, cells were either untreated, DMSO-treated, or treated with increasing concentrations of Compound 139 up to 10 μM. Plates were read on Day 0, Day 4, and Day 7 using luminescent cell viability assay. On Day 7, the 6-well plates were trypsinized, centrifuged, and resuspended in fresh media for counting by Vi-Cell. Cells from each treatment were replated at the original density in 96-well plates in triplicate. Cells were treated with compound as on Day 0. On Day 7, 11 and 14, plates were read using a luminescent cell viability assay. Averages of triplicates were used to plot proliferation over the timecourse, and calculate IC50 values.

[2] = target: T1, FL-SMARCA2 (full-length human SMARCA2 isoform 1) (Homo sapiens, UniProt P51531); test: SMARCA2 ATPase activity assay (ADP-Glo, chicken mononucleosome substrate); type: biochemical; details: ATPase assay, enzyme 5 nM, ATP 250 uM, chicken mononucleosome 10 nM, 30 min preincubation
T1 construct: FLAG tag (YKDDDDK) (C); made in house; host or cells: Sf21 insect cells (baculovirus, pFastBacI)
T1 sequence (P51531 with tags, fused parts or gaps): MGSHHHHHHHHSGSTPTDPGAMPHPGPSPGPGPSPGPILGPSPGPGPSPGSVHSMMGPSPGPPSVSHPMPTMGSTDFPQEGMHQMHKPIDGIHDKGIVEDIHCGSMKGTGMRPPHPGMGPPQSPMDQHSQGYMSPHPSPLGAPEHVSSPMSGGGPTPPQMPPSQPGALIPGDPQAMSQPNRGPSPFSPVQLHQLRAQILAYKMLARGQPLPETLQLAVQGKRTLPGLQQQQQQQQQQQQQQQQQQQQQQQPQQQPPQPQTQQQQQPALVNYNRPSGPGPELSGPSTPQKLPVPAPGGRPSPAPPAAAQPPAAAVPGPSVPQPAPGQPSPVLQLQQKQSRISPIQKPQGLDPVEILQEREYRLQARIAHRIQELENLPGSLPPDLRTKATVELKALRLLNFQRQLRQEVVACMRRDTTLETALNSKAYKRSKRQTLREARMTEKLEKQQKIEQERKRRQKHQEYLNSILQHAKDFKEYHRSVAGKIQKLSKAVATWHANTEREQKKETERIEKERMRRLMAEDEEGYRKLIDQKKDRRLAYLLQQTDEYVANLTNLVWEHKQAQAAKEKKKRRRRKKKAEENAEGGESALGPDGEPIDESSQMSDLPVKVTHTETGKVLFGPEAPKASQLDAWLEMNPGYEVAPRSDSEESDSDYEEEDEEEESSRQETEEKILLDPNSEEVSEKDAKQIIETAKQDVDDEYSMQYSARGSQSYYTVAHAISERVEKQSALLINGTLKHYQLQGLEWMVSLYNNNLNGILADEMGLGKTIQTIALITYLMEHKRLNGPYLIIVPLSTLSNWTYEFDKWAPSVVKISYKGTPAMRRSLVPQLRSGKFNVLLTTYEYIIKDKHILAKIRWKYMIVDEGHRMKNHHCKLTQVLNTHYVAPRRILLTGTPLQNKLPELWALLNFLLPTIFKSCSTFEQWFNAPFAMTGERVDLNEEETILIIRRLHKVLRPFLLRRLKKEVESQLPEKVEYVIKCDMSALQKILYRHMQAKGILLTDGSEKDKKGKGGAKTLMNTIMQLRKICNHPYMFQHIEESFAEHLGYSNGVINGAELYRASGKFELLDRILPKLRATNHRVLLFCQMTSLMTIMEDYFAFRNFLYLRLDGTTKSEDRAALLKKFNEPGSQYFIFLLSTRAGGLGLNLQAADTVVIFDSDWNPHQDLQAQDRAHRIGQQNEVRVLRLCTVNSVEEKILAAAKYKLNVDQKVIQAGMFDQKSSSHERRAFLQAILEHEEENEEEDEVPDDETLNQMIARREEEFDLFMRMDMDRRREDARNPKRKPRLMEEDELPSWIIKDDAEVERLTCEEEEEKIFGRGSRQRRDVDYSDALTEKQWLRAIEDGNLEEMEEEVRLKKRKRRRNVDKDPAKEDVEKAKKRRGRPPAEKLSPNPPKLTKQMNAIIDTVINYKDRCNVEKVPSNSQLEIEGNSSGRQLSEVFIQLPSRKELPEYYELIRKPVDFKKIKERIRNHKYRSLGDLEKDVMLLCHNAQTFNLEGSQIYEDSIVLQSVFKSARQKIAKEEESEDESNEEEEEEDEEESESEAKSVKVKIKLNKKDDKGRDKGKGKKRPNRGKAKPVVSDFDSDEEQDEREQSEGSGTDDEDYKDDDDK

[3] = Homo sapiens, A549, A549, SMARCA4 protein Absent, Lung NSCLC adenocarcinoma
[4] = Homo sapiens, COR-L105, CORL105, SMARCA4 protein Present, Lung NSCLC adenocarcinoma
[5] = Homo sapiens, HCT-116, HCT116, SMARCA4 protein Present, Colon Cancer
[6] = Homo sapiens, NCI-H358, NCIH358, SMARCA4 protein Present, Lung NSCLC bronchioloalveolar adenocarcinoma
[7] = Homo sapiens, NCI-H358, NCIH358 SMARCA4, SMARCA4 protein Absent, Lung NSCLC bronchioloalveolar adenocarcinoma
[8] = Homo sapiens, NCI-H460, NCIH460, SMARCA4 protein Present, Lung NSCLC large cell carcinoma
[9] = Homo sapiens, NCI-H522, NCIH522, SMARCA4 protein Absent, Lung NSCLC adenocarcinoma
[10] = Homo sapiens, NCI-H1299, NCIH1299, Lung NSCLC non small cell carcinoma
[11] = NCI-H1568, NCIH1568, SMARCA4 protein Absent, Lung NSCLC adenocarcinoma
[12] = NCIH2085, SMARCA4 protein Present, Lung NSCLC adenocarcinoma
[13] = RERFLCAI, SMARCA4 protein Absent, Lung NSCLC squamous cell carcinoma

Structure (SMILES): N#Cc1cc(C(=O)Nc2cc(F)c(=O)n(CC(F)F)c2)sc1C(F)(F)F [Compound 82c, 4-cyano-N-[1-(2,2-difluoroethyl)-5-fluoro-6-oxopyridin-3-yl]-5-(trifluoromethyl)thiophene-2-carboxamide]
- IC50 (A549 cells): 259 nM
- IC50 (FL-SMARCA4; FL-SMARCA4 IC>50, Table 3c.2): 66.1 nM
- IC50 [1, 3]: 259 nM
- IC50 [1, 4]: 170 nM
- IC50 [1, 5]: 142 nM
- IC50 [1, 6]: 1700 nM
- IC50 [1, 7]: 383 nM
- IC50 [1, 8]: 10000 nM
- IC50 [1, 9]: 9700 nM
- IC50 [1, 10]: 1700 nM
- IC50 ([1]; Homo sapiens, NCI-H1581, NCIH1581, SMARCA4 protein Absent, Lung NSCLC large cell carcinoma): 10000 nM
- IC50 [1, 11]: 10000 nM
- IC50 [1, 12]: 10000 nM
- IC50 [1, 13]: 26 nM
- IC50 ([2]; Table 3c.1): 9.88 nM

Structure (SMILES): N#Cc1sc(C(=O)Nc2cc(F)c(=O)n(CCF)c2)cc1Cl [Compound 139]
- IC50 (A549 cells): 316 nM
- IC50 (FL-SMARCA4; FL-SMARCA4 IC50, Table 3.2): 54.1 nM
- IC50 ([1]; HCC15, HCC15, SMARCA4 protein Absent, Lung NSCLC squamous cell carcinoma): 677 nM
- IC50 ([1]; HCC1588, HCC1588, SMARCA4 protein Present, Lung NSCLC squamous cell carcinoma): 906 nM
- IC50 [1, 3]: 316 nM
- IC50 ([1]; Homo sapiens, COR-L23, CORL23, SMARCA4 protein Present, Lung NSCLC large cell carcinoma): 1700 nM
- IC50 [1, 4]: 95 nM
- IC50 ([1]; Homo sapiens, Calu-6, CALU6, SMARCA4 protein Present, Lung NSCLC undifferentiated carcinoma): 1210 nM
- IC50 ([1]; Homo sapiens, HCC44, HCC44, SMARCA4 protein Present, Lung NSCLC adenocarcinoma): 1270 nM
- IC50 ([1]; Homo sapiens, HCC827, HCC827, SMARCA4 protein Present, Lung NSCLC adenocarcinoma (bronchioalveolar features)): 10000 nM
- IC50 [1, 5]: 169 nM
- IC50 ([1]; Homo sapiens, NCI-H23, NCIH23, SMARCA4 protein Absent, Lung NSCLC non small cell carcinoma): 1100 nM
- IC50 [1, 6]: 10000 nM
- IC50 ([1]; Homo sapiens, NCI-H358, NCIH358 SMARCA2, SMARCA4 protein Present, Lung NSCLC bronchioloalveolar adenocarcinoma): 10000 nM
- IC50 [1, 7]: 347 nM
- IC50 ([1]; Homo sapiens, NCI-H441, NCIH441, SMARCA4 protein Present, Lung NSCLC adenocarcinoma): 5200 nM
- IC50 [1, 8]: 10000 nM
- IC50 [1, 9]: 10000 nM
- IC50 ([1]; Homo sapiens, NCI-H596, NCIH596, Lung NSCLC mixed adenosquamous carcinoma): 8800 nM
- IC50 ([1]; Homo sapiens, NCI-H810, NCIH810, SMARCA4 protein Present, Lung NSCLC large cell carcinoma): 174 nM
- IC50 ([1]; Homo sapiens, NCI-H838, NCIH838, SMARCA4 protein Present, Lung NSCLC adenocarcinoma): 10000 nM
- IC50 [1, 10]: 857 nM
- IC50 ([1]; Homo sapiens, NCI-H1395, NCIH1395, SMARCA4 protein Present, Lung NSCLC adenocarcinoma): 10000 nM
- IC50 ([1]; Homo sapiens, NCI-H1437, NCIH1437, SMARCA4 protein Present, Lung NSCLC adenocarcinoma): 1500 nM
- IC50 ([1]; Homo sapiens, NCI-H1563, NCIH1563, SMARCA4 protein Present, Lung NSCLC adenocarcinoma): 2300 nM
- IC50 ([1]; Homo sapiens, NCI-H1573, NCIH1573, SMARCA4 protein Absent, Lung NSCLC adenocarcinoma): 504 nM
- IC50 ([1]; Homo sapiens, NCI-H1650, NCIH1650, SMARCA4 protein Present, Lung NSCLC bronchioalveolar carcinoma): 5000 nM
- IC50 ([1]; Homo sapiens, NCI-H1693, NCIH1693, SMARCA4 protein Absent, Lung NSCLC adenocarcinoma): 101 nM
- IC50 ([1]; Homo sapiens, NCI-H1792, NCIH1792, SMARCA4 protein Present, Lung NSCLC adenocarcinoma): 10000 nM
- IC50 ([1]; Homo sapiens, NCI-H1793, NCIH1793, SMARCA4 protein Present, Lung NSCLC adenocarcinoma): 890 nM
- IC50 ([1]; Homo sapiens, NCI-H1838, NCIH1838, SMARCA4 protein Present, Lung NSCLC non-small cell lung cancer): 587 nM
- IC50 ([1]; Homo sapiens, NCI-H1975, NCIH1975, SMARCA4 protein Present, Lung NSCLC non small cell carcinoma): 10000 nM
- IC50 ([1]; Homo sapiens, NCI-H2030, NCIH2030, SMARCA4 protein Absent, Lung NSCLC non small cell carcinoma): 1140 nM
- IC50 ([1]; Homo sapiens, NCI-H2122, NCIH2122, SMARCA4 protein Present, Lung NSCLC adenocarcinoma): 2800 nM
- IC50 ([1]; Homo sapiens, NCI-H2126, NCIH2126, SMARCA4 protein Present, Lung NSCLC adenocarcinoma): 5500 nM
- IC50 ([1]; Homo sapiens, NCI-H2342, NCIH2342, SMARCA4 protein Present, Lung NSCLC non-small cell lung cancer): 2500 nM
- IC50 ([1]; Homo sapiens, PANC-1, PANC1, Pancreatic Cancer ductal carcinoma): 10000 nM
- IC50 ([1]; Homo sapiens, SW900, SW900, SMARCA4 protein Present, Lung NSCLC squamous cell carcinoma): 10000 nM
- IC50 ([1]; Hs766T, Pancreatic Cancer ductal carcinoma): 1000 nM
- IC50 ([1]; NCI-H1435, NCIH1435, SMARCA4 protein Present, Lung NSCLC adenocarcinoma): 443 nM
- IC50 [1, 11]: 395 nM
- IC50 [1, 12]: 314 nM
- IC50 [1, 13]: 61 nM
- sensitivity to inhibition of SMARCA2 (IC50): cell lines with loss or absence of SMARCA4 versus cell lines with SMARCA4 protein present ([1]; lung cancer cell lines of Table 5, FIG. 1): more sensitive
- IC50 ([2]; Table 3.1): 19.6 nM
